This is an account of results in patent US20160199535A1, “Controlled and Localized Release of Retinoids to Improve Neointimal Hyperplasia” (VesselTek BioMedical LLC, priority 2008, published 2016).

Converted amounts (≈) assume the structure as drawn.

For data set [1] the following is noted: cited from earlier work.
The test system of data set [2] is human monocytic THP-1 cells. Kind of data set: Assessment of inflammatory potential, marker expression via ELISA. It is filed as cell-based. To be noted: THP-1 cell suspension exposed to material films, LPS positive control. How it is done:
For assessment of inflammatory potential, a suspension of human monocytic THP-1 cells was exposed to POC, TCP, PLGA, and ePTFE films. Afterwards, the expression of tissue factor, IL-6, and TNF-α was measured via ELISA. Addition of lipopolysaccharide (LPS) to the cells was used as a positive control.

In the case of `CC1=C(/C=C/C(C)=C/C=C/C(C)=C/C(=O)O)C(C)(C)CCC1` [ATRA, All-trans retinoic acid], the “solubility in dimethylsulfoxide (DMSO)” value in data set [1] (DMSO) is listed as “soluble”. The solubility in chloroform result in data set [1] (chloroform) was “soluble”. Also, in data set [1] (dichloromethane), the solubility in dichloromethane entry is listed as “soluble”. Besides, in data set [1] (ethanol), the solubility in ethanol is 3000 µg/mL (≈ 9.99 mM). In addition, in data set [1] (water), the solubility in water entry was “not readily soluble”.
For lipopolysaccharide [LPS], in data set [2], the TNF-α expression is 874 ± 531 and the Tissue factor expression was 536 ± 81.
